Measurements from PMC9445672, “A novel angiotensin-I-converting enzyme inhibitory peptide from oyster: Simulated gastro-intestinal digestion, molecular docking, inhibition kinetics and antihypertensive effects in rats” (Frontiers in Nutrition, 2022).
Like-named read-outs stand apart in the source and are kept apart here. Residues, ends and D or L forms follow the SMILES beside them.

Legend:
[1] = molecular target: T1, Angiotensin-I converting enzyme (ACE) (from rabbit lungs) (Oryctolagus cuniculus, UniProt P12822); experiment: ACE-inhibitory activity assay (HHL substrate, HPLC of hippuric acid); format: biochemical
T1 construct: Angiotensin-I converting enzyme (ACE) (from rabbit lungs); purchased Sigma-Aldrich Co. (St. Louis, MO, United States); host or cells: rabbit lung tissue
T1 sequence (P12822 34-1310): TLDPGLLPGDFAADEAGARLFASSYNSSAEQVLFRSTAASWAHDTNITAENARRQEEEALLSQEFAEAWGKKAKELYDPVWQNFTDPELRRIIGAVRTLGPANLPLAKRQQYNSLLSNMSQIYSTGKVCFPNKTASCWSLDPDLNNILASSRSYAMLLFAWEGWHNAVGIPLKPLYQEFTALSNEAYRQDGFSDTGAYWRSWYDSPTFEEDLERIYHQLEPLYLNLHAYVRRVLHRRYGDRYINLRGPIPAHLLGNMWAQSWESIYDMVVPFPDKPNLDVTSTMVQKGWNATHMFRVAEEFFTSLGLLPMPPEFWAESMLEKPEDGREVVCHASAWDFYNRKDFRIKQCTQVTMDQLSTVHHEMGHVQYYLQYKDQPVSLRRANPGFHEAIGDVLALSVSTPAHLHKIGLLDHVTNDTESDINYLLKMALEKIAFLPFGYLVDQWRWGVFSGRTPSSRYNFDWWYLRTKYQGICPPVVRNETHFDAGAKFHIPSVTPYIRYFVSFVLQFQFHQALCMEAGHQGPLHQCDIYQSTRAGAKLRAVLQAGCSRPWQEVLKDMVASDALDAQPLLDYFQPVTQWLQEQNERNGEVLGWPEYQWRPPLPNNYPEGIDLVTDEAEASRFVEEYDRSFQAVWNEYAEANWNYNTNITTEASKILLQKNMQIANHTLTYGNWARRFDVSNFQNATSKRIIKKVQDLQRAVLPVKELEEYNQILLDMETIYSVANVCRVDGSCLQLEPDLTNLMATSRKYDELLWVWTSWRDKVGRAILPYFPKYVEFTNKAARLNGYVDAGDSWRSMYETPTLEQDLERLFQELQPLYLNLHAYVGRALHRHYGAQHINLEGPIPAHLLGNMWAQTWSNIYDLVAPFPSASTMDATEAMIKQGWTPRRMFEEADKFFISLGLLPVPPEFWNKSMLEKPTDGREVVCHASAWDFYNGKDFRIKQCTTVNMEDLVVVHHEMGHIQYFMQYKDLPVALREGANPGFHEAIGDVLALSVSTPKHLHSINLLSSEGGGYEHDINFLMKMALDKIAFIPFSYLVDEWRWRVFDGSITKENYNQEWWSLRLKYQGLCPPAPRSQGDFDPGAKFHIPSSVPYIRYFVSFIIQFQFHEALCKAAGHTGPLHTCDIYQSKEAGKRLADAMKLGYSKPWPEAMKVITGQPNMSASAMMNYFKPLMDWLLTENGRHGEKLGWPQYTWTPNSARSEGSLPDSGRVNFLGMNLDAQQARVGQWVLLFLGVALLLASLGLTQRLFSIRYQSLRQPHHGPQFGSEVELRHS
Description: The ACEI activity of the synthesized peptides was measured following the reported method with a minor modification ([22]). The experiment was carried out in a 1.5 mL PE tube. Briefly, for each assay, 20 μL of the inhibitor (1 mg/ml) was mixed with 120 μL of the HHL solution in the concentration of 5 mM. The mixture was first preincubated at a constant temperature of 37°C for 5 min, 10 μL ACE (0.1 U/mL) was then added to start the reaction, and to incubate at 37°C for 60 min. In the end, 150 μl HCl (1M) was used to terminate the reaction. Meanwhile, the inhibitor solution was replaced with 20 μL boric acid buffer solution (0.1 mol/L, pH 7.3, containing 0.3 mol/L NaCl) as a blank control group. The HPLC system was equipped with a ZORBAX Eclipse SB-C18 column (5 μm particle size, 4.6 × 150 mm). To analyze the releasing amount of hippuric acid under the action of ACE, the elution was conducted in 25% Mobile Phase A (ACN) and 75% Mobile Phase B (0.05% TFA in ultrapure water) for 25 min with a flow rate of 0.8 mL/min. The ACE inhibitory activity percentage (%) was calculated based on the equation below:
ACEinhibitionrate(%)=(B-S)/B×100
Where B and S are the chromatographic peak areas of the control group and the sample tested, respectively. IC50 is the inhibitor concentration capable of inhibiting 50% of ACE activity under the described experimental conditions, which was estimated by non-linear regression of ACE inhibition (%) against different inhibitor concentrations by using SPSS software.

[2] = molecular target: T1, Angiotensin-I converting enzyme (ACE) (from rabbit lungs); experiment: Kinetics of ACE inhibition (Lineweaver-Burk plot); format: biochemical; settings: HHL 1–10 mM, peptide 1 and 2 mg/mL
Description: To explore the inhibition pattern of the peptide and clarify the kinetics of ACEI activity, the Lineweaver-Burk plot was employed in our study. The various concentrations of the HHL solution were 1, 2, 5, 8, and 10 mM, and the concentration of synthesized peptide was set as 2 mg/mL. Various concentrations of HHL and peptide were incubated in ACE solutions. The Y-intercept of the Lineweaver-Burk plot represents the reciprocal of the maximum velocity (Vmax^–1), while the X-intercept is the reciprocal of the Michaelis-Menten constant (Km^–1).

[3] = molecular target: T1, Angiotensin-I converting enzyme (ACE) (from rabbit lungs); experiment: ACE-inhibitory activity assay (HHL substrate, HPLC of hippuric acid); format: biochemical; settings: peptide 2 mg/mL, HHL 5 mM, ACE 0.1 U/mL, 37°C, 5 min pre-incubation, 60 min, triplicate
[4] = tested on: SHRs (spontaneously hypertensive rats); experiment: Blood pressure of SHRs after single intragastric administration (tail-cuff); format: in vivo, rat
Description: Male SHRs aged 10–12 weeks old, body weight (BW) of 220–250 g, and blood pressure over 180 mmHg were purchased from Trophic Animal Feed High-tech Co. Ltd., (Nantong, China). Six SHRs were administrated individually in each cage with the stable room temperature (25 ± 0.5°C), the humidity of 55 ± 5%, and a 12-h light to12-h dark cycle. Food and water were freely accessed. Rats were accustomed to the above environment for 2 weeks before the experiment. […] The SHRs were randomly grouped in 3. Rats were gavage administered with peptide at 15 mg/kg⋅BW/day in the experiment group. […] All rats were gavaged with their daily dose at 8 am, and the blood pressure was measured every 3 h by 4 times, which was using the tail-cuff method ([27]). Briefly, rats were covered with a fixed device but could let their tail leak out (MK2000ST, Muromachi Kikai Co., Ltd., Japan). A cuff was curled around the tail to measure the diastolic blood pressure (DBP) and systolic blood pressure (SBP).

[5] = tested on: ACE; settings: cited from earlier work
From the text: The inhibitory patterns of the ACEI peptides mainly contain competitive inhibition, non-competitive inhibition, and mixed inhibition according to their various structures. […] Non-competitive A ... || The Lineweaver-Burk plots were employed to elucidate the ACE inhibition kinetic of the synthetic peptide […], shown in Figure 2B. Whereas the Vmax was the same when the concentrations of the inhibitory peptide increased, the Km/Vmax value increased. […] Among all the ACE inhibition patter ...

[6] = tested on: Ren1 / Adrb3 expression in SHRs; parameters: method as in 2 sources, one per row (each row's own in cited_ref): ref [45] = [45]; PMID 24404915; doi:10.1021/jf405189y; 45. Yu ZP Yin YG Zhao WZ Chen F Liu JB . Antihypertensive effect of angiotensin-converting enzyme inhibitory peptide RVPSL on spontaneously hypertensive rats by regulating gene expression of the renin ||| ref [46] = [46]; PMID 26517713; doi:10.1371/journal.pone.0142016; 46. Feng J Dai Z Zhang Y Meng L Ye J Ma X . Alteration of gene expression profile in kidney of spontaneously hypertensive rats treated with protein hydrolysate of blue mussel ( Mytilus edulis ) by DNA; settings: SHRs orally administered 50 mg/kg; ref [45]; cited from earlier work
[7] = peptide 1 mg/mL, HHL 5 mM, ACE 0.1 U/mL, 37°C, 5 min pre-incubation, 60 min, HPLC of hippuric acid, triplicate
[8] = clinical drugs for hypertension, ref [30]
[9] = food-derived peptides, ref [41], [42]
[10] = food-derived peptides, ref [32], [37]
[11] = food-derived peptides, ref [43], [44]

Molecule | ACE inhibition rate (%) Concentration (1 mg/mL) [1, 7] | ACE inhibition rate (%) Concentration (2 mg/mL) [3] | ACE inhibitory pattern [5, 10] | other results
CC(C)C[C@H](NC(=O)[C@H](Cc1ccc(O)cc1)NC(=O)[C@H](CCC(=O)O)NC(=O)[C@H](C)N)C(=O)N[C@@H](CS)C(=O)N[C@@H](CCC(=O)O)C(=O)N[C@@H](C)C(=O)N[C@@H](CS)C(=O)O (H-AEYLCEAC-OH) | 14.2857% | 29.3266% |  | inhibition at 1000 µg/mL ([1]; peptide 1 mg/mL, HHL 5 mM, ACE 0.1 U/mL, 37°C, 5 min pre-incubation, 60 min, HPLC of hippuric acid, triplicate, read-out: ACE inhibition rate (%) Concentration (1 mg/mL)): 14.3%; IC50 ([1]; peptide 0.2–15 mg/mL, HPLC method, regression y = −0.0073x^2 + 0.1616x −0.0105 (R^2 = 0.99), read-out: IC50 of ACE inhibition): 4.29 mM; Km/Vmax value with increasing inhibitory peptide concentration [2]: increased; inhibition at 2000 µg/mL ([3]; read-out: ACE inhibition rate (%) Concentration (2 mg/mL)): 29.3%
C[C@H](CS)C(=O)N1CCC[C@H]1C(=O)O [captopril] |  |  |  | blood pressure reduction in rats with hypertension, overall comparison ([4]; all data of single and 4-week administration in SHRs): better than AEYLCEAC; SBP after a single intragastric administration ([4]; male SHRs, gavage, peptide 15 mg/kg BW, captopril 10 mg/kg BW, 3 to 12 h, vs water control, p < 0.01): SBP in control group was significantly higher than that in the peptide group and positive group
CCOC(=O)[C@H](CCc1ccccc1)N[C@@H](C)C(=O)N1CCC[C@H]1C(=O)O [enalapril] |  |  |  | ACE inhibitory pattern [5, 8]: competitive inhibitors
NCCCC[C@H](N[C@@H](CCc1ccccc1)C(=O)O)C(=O)N1CCC[C@H]1C(=O)O [lisinopril] |  |  |  | ACE inhibitory pattern [5, 8]: competitive inhibitors
ALVY [from Gac Seed Protein Hydrolysates] |  |  |  | ACE inhibitory pattern [5, 9]: competitive
AVKVL [derived from hazelnut] |  |  | Non-competitive | 
EPNGLLLPQY [from walnut protein] |  |  |  | ACE inhibitory pattern [5, 11]: mixed pattern
ETSGMKPTEL [isolated from longan seeds] |  |  | Non-competitive | 
ISSMGILVCL [isolated from longan seeds] |  |  | Non-competitive | 
LDVSWASD | 3.6918% | 13.9971% |  | 
LSSNLHG | –1.1236% | –5.7205% |  | 
NMAINPSKENLCSTFCK [isolated from casein hydrolysates] |  |  |  | ACE inhibitory pattern [5, 11]: mixed pattern
QAGLSPVR [from tilapia skin gelatin] |  |  | Non-competitive | 
QEVVMGEC | –3.8523% | –5.0688% |  | 
QLVP [from Mycelia of Ganoderma Lucidum] |  |  |  | ACE inhibitory pattern [5, 11]: mixed pattern
RSNDGPI | –13.9647% | –4.3447% |  | 
RVPSL [hydrolyzed from egg white protein] |  |  |  | Ren1 expression [6]: downregulated
SSYYPFK [from naked oat globulin hydrolysates] |  |  |  | ACE inhibitory pattern [5, 9]: competitive
TLVGR [derived from hazelnut] |  |  | Non-competitive | 
TNEVEGPS | –4.8796% | 7.9218% |  | 
VGLPNSR [from tilapia skin gelatin] |  |  | Non-competitive | 
VILGDADLP | 1.6051% | 4.7219% |  | 
YLVR [derived from hazelnut] |  |  | Non-competitive | 
